Some test systems named below: UACC-257 melanoma; SN12C renal; SK-OV-3 ovarian; ACHN renal; SNB-75 CNS; HOP-92 NSCLC; COLO 205 colon; CAKI-1 renal; OVCAR-4 ovarian; HT29 colon.
Common to all, as to assay: NCI-60 cell line screen, 48 h

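Method: 48-hour compound exposure of cells in 96-well plates, five concentrations, linear interpolation of endpoints. GI50 is the concentration that inhibits growth by half. TGI: total growth inhibition.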

With `c1ccc(Sc2ncnc3ccccc23)cc1`, the GI50 is 11.9 µM in the experiment on UACC-257 melanoma; 10.8 µM in the experiment on SN12C renal; 22.1 µM in the experiment with SK-OV-3 ovarian; 11 µM in the experiment on ACHN renal; 12.1 µM in the experiment with SNB-75 CNS; 4.49 µM in the experiment on HOP-92 NSCLC. For the same compound, the GI50 was 15 µM in the experiment with COLO 205 colon, 12.7 µM with CAKI-1 renal, 8.05 µM in the experiment with OVCAR-4 ovarian and 19.3 µM with HT29 colon. Moreover, the TGI in the experiment with UACC-257 melanoma was found to be 34.7 µM; in the experiment with SN12C renal, 27.4 µM; in the experiment on SK-OV-3 ovarian, 49.6 µM; in the experiment with ACHN renal, 31.6 µM; in the experiment with SNB-75 CNS it was 35 µM; in the experiment on HOP-92 NSCLC, 27.5 µM. For the same compound, the TGI in the experiment on COLO 205 colon is 28.3 µM; in the experiment with CAKI-1 renal, 32.3 µM; in the experiment on OVCAR-4 ovarian, above 100 µM; with HT29 colon, 44.7 µM.

Turning to `Cc1cccc(C)c1NC(=O)CCCC(=O)C1/C(=N/NC(=O)CC#N)CCC/C1=N\NC(=O)CC#N` (stereo not given), the TGI in the experiment with UACC-257 melanoma, with SN12C renal, in the experiment with SK-OV-3 ovarian, in the experiment on ACHN renal, in the experiment on SNB-75 CNS and in the experiment with HOP-92 NSCLC was above 100 µM in each case. Further, the TGI in the experiment on COLO 205 colon, in the experiment on CAKI-1 renal, in the experiment on OVCAR-4 ovarian and in the experiment with HT29 colon was above 100 µM throughout.

The values are drawn from PubChem BioAssay (NCI).
